Peptide text beside a SMILES is read from it.

For data set [1], the target named is Angiotensin I converting enzyme (ACE) (Homo sapiens, UniProt P12821). Kind of data set: Angiotensin I converting enzyme (ACE) inhibitory activity, method of Cushman and Cheung. It is filed as biochemical. As to conditions: Hip-His-Leu substrate, pH 8.3, 37° C., 30 min. Here is the method:
A prescribed amount of sample was added to a solution composed of 1-10 mU ACE, 2.5 mM Hip-His-Leu substrate (produced by Peptide Research Institute), 100 mM potassium-phosphate buffer (pH 8.3), and 300 mM NaCl. 0.25 ml of this mixture was incubated at 37° C. for 30 min, and the enzymatic reaction was stopped by adding 0.25 ml of 1N HCl. 1.5 ml of ethylacetate was then added and the mixture was vigorously shaken for 10 second, following which the hippuric acid produced was extracted. […] A blank (ODsbl) was made by adding 1N HCl prior to incubation, and the difference in absorbance, ODs-ODsbl, was determined. […] ACE inhibitory activity was calculated using the following equation: [formula]

The subject of a further data set is ICR mice. As to the kind of experiment: Intravenous LD50 in ICR mice. The data set is classed as in vivo. To be noted: in physiological saline, 6 week old male and female ICR mice, 2 week observation. As to the method: (§1) The peptide of formula (I) prepared in Example 2 was dissolved in physiological saline.
(§2) Various concentrations of the peptide in physiological saline were intravenously administered to test animal groups each consisting of 6 week old male (10/group) or female (10/group) ICR mice, or 6 week old male (10/group) or female (10/group) Wistar rats. The LD50 value was determined after a 2 week observation period.

The subject of a further data set is Wistar rats. Kind of data set: Intravenous LD50 in Wistar rats. It is filed as in vivo. As to conditions: in physiological saline, 6 week old male and female Wistar rats, 2 week observation. As to the method:
as §1, §2

Chain of Angiotensin I converting enzyme (ACE) (P12821 30-1306, species assumed): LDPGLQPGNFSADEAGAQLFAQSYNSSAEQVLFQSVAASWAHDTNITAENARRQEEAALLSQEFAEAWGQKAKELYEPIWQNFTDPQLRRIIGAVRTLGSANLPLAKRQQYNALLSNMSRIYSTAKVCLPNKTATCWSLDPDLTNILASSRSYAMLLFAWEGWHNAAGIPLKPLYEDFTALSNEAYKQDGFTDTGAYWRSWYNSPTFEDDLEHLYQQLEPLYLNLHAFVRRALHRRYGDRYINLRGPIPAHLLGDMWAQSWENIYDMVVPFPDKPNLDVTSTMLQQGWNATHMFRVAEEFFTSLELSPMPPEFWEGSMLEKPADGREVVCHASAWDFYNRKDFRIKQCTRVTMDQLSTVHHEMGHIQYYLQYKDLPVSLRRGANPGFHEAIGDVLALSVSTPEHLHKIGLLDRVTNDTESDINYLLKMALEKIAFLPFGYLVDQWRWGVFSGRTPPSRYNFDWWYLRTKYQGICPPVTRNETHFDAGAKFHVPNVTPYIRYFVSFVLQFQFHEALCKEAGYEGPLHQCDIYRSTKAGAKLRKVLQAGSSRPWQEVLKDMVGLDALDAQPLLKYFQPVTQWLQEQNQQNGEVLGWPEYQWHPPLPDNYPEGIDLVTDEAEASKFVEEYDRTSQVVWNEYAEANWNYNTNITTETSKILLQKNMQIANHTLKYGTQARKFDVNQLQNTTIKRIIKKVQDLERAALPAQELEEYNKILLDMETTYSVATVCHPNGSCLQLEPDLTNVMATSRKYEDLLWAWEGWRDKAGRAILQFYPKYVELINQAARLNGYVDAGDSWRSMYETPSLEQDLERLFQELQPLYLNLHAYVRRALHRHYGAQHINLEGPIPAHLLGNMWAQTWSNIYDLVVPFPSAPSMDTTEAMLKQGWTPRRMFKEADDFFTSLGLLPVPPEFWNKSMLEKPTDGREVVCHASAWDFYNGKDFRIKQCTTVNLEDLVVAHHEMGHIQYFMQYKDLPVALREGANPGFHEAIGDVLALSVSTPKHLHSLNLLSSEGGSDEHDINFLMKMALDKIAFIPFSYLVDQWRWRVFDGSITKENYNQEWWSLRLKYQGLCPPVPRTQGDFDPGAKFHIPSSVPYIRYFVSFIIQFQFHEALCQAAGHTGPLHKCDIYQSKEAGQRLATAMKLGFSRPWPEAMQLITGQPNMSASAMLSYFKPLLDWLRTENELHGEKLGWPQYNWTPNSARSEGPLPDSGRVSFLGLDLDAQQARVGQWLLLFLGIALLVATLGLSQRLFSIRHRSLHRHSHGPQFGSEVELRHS

A word on the IC50: it is the concentration that gives 50% inhibition. Low readings indicate greater potency, high ones weaker potency. With `CC(C)C[C@H](NC(=O)[C@@H](NC(=O)[C@@H](N)CC(C)C)C(C)C)C(=O)O` [Tripeptide, Leu-Val-Leu, reference compound] (H-Leu-Val-Leu-OH), the IC50 in data set [1] (comparison samples of Table 1) came to 1700 nM.

Take `CC[C@H](C)[C@H](NC(=O)[C@H](Cc1c[nH]cn1)NC(=O)[C@@H](NC(=O)[C@@H]1CCCN1)[C@@H](C)O)C(=O)N[C@@H](CCCCN)C(=O)N[C@@H](Cc1c[nH]c2ccccc12)C(=O)NCC(=O)N[C@@H](CC(=O)O)C(=O)O` [Peptide (I), Pro-Thr-His-Ile-Lys-Trp-Gly-Asp] (H-PTHIKWGD-OH): the LD50 entry with ICR mice and in the data set on Wistar rats was “greater than 10 mg/kg” throughout. In addition, the concentration for half-maximal inhibition (IC50) in data set [1] (sample origin: Fish) is 700 nM; in data set [1] (sample origin: Peptide Synthesis), 600 nM.

Values taken from patent US5071955A, “Octopeptide exhibiting antimypertensive activity” (Nippon Suisan Kaisha, Ltd., priority 1988, dated 1991).
